Laboratory results taken from patent publication US20030203356A1, “RNase L activator-antisense complexes” (priority 2002, published 2003).
Like-named read-outs stand apart in the source and are kept apart here. Oligonucleotides are written 5' to 3', each unit as a sugar letter and its base; * is a phosphorothioate linkage, no mark a phosphodiester; rarer units and linkages stand in square brackets, end groups in braces. Plain capitals give the bases only. {spA4} = thiophosphorylated 2',5'-linked tetraadenylate (2-5A), RNase L activator; {spA3} = thiophosphorylated 2',5'-linked triadenylate (2-5A), RNase L activator; {S9} = spacer 9 linker, triethylene glycol phosphate; {BU2} = two butanediol phosphate linkers; m = 2'-O-methyl

Tested on: RSV
Assay: anti-RSV activity in infected HEp-2 cells (reduction of cytopathic effects, neutral red uptake assay)
Assay type: cell-based, Respiratory Syncytial Virus
From the text: A comparison of the efficacies of RBI245 treatment and conventional ribarvirin treatment can be obtained by determining the RSV-inhibitory concentration and the cytotoxic concentration of each compound. Cultures of the human laryngeal carcinoma cell line HEp-were established and infected with an MOI=0.02. Treatment with either ribavirin or RBI245 was begun one hour post-infection. The effects of treatment on RSV infection were reported as an EC50, the concentration at which there was a 50% reduction in the observable cytopathic effects of infection. The results of the treatment of HEp-2 cells with RBI245, ribavirin, and other activator-antisense complexes are shown in FIG. 1 and summarized in Table 2. […] Therefore, the activity of RBI245 in vitro is more than 1000-fold better than ribavarin, the only approved drug for the treatment of RSV. No toxicity was found for any of the 2-5A oligonucleotide compounds up to the maximum dosage tested (3.2 μM).

[1] = HEp-2 cells infected with RSV, MOI=0.02, treatment begun one hour post-infection, read-out: EC50 in μM (50% Effective dose based on neutral red uptake assay)

spA4-BU2-(GsAsTsAGAAATAGAAAsGsCsA)m-3′ (GATAGAAATAGAAAGCA; antisense; all 2'-O-methyl, linkages s3 o10 s3 (s phosphorothioate, o phosphodiester), 5' {spA4}-{BU2}, T or U not given here; 5' 2-5A activator attached via linker) [RBI066, scrambled control, reference compound]
EC50 [1]: > 3.2 µM

NC(=O)c1ncn([C@@H]2O[C@H](CO)[C@@H](O)[C@H]2O)n1 [Ribavirin, reference compound]
EC50 (human respiratory syncytial virus, 1 h, HEp-2 cells infected with RSV, MOI=0.02, treatment begun one hour post-infection, read-out: EC50 in μM (50% Effective dose based on neutral red uptake assay)): 60 µM | EC50 (human respiratory syncytial virus, 1 h, HEp-2 cells, MOI=0.02, treatment one hour post-infection, read-out: EC50, concentration at which there was a 50% reduction in the observable cytopathic effects of infection): 60 µM

5′sp-A2′s5′A2′s5′A2′s5′A2′-p(CH2CH2O)3-p-5′(AsAsAsAAUGGGGCAAAsUsAsA)m03′ (antisense {spA4}-{S9}-mA*mA*mA*mAmAmUmGmGmGmGmCmAmAmA*mU*mA*mA; 5' 2-5A activator attached via triethylene glycol linker, further chemistry not given here) [RBI245]
EC50 (HEp-2 cells, MOI=0.02, treatment one hour post-infection, read-out: EC50, concentration at which there was a 50% reduction in the observable cytopathic effects of infection): 0.02 µM | anti-RSV activity in vitro relative to ribavirin (ratio of in vitro potency versus ribavirin): more than 1000 fold

(spA)3-S9-(AsAsAsAAUGGGGCAsAsA)m-3′ ({spA3}-{S9}-mA*mA*mA*mAmAmUmGmGmGmGmCmA*mA*mA; antisense; 5' 2-5A activator attached via linker) [RBI243, shortened version of 245]
EC50 [1]: 0.3 µM

spA4-BU2-(AsAsAsAAUGGGGCAAAsUsAsA)m3′ ({spA4}-{BU2}-mA*mA*mA*mAmAmUmGmGmGmGmCmAmAmA*mU*mA*mA; antisense; 5' 2-5A activator attached via linker) [RBI034]
EC50 [1]: 0.6 µM
